{"source": "patent US8476005B2", "about": "“Microfluidic embedded polymer NEMS force sensors” (California Institute of Technology, priority 2008, dated 2013)", "key": {"cells": {"test_system": "cells", "assay": "Surface chemistry Petri dish experiments: cell adherence and spreading on treated surface", "format": "cell-based", "conditions": "surface treated with this agent only; polymer surface with gold pads", "description": "FIGS. 3a-3d show results from surface chemistry Petri dish experiments. […] FIG. 3c-3d show results from complete surface chemistry process (SAM, Pluronics and fibronectin): cells are well spread on the gold and absent from the polymer A force sensor comprising a polymer surface with gold pads was used. The cells were to be attached to the pads and not to the polymer. At the beginning, both the pad and the polymer surfaces were hydrophobic, and water contact angle was about 80° on both. A self assembled monolayer was applied to the gold pads using thiol based chemistry. […] Monolayers were deposited from ethanol solutions […]. The monolayers left the gold surface hydrophilic, and water contact angle was about 25°. The polymer regions were coated with Pluronics […]). The surfaces were treated to Pluronics diluted in PBS (phosphate buffer solution), 0.02% to 1% by weight for 20-80 min. […] Pluronics left the surface hydrophilic. The gold regions were coated with Fibronectin. The surfaces were treated with fibronectin diluted in PBS, 5 ug/mL to 50 ug/mL for 20 min-4 hrs. […] FIGS. 3(c) and 3(d) show results from complete surface chemistry process (SAM, Pluronics and fibronectin), wherein cells were well spread on the gold and absent from the polymer. Thus, modifying surface chemistry allowed control of the cell adherence and/or spreading."}, "[1]": {"test_system": "individual fibroblasts (NIG-3T3)", "assay": "Single-cell force response to a perturbing agent, measured with polymer NEMS force sensor", "format": "cell-based", "description": "FIGS. 2a-2i illustrate NEMS-enabled single-cell force measurements with high temporal and force resolution. FIGS. 2a-2b provide optical images showing a microfluidics encapsulated force sensor, and FIG. 2c provides an electron micrograph thereof. […] The force data was acquired with a force resolution of 200 pN and a time resolution of 100 ms—25× and 300×, respectively, better than prior state of the art. FIGS. 2f-2h provide plots that show force signatures of two molecular-mechanical processes: small force oscillations, roughly 400 pN peak-to-peak, with a frequency that is monotonically dependent on the force being exerted by the lamellipodium shown in FIG. 2f, with FIG. 2g illustrating the linearity of frequency dependence.\nNEMS force sensors can be used in phenotypic screening. […] Cells can then be exposed to one or more potential reagents, such as a pharmaceutical reagent, such as a drug, introduced in a carefully controlled manner using the integrated microfluidics, and the effects of the reagent(s) on the cells, such as the force exerted by the cells, is monitored. […]\nThe reagent can cause the cell to change in its physiology, such as conformation and/or structure, or change its force response to the reagent. […] The lengthening of the wire can then be detected. […]"}}}
{"molecule": "fibronectin", "values": [{"measurement": "cell attachment and spreading on surface", "setting": "cells", "result": "cells were spread everywhere"}]}
{"molecule": "C=C1[C@@H](C)[C@H]2[C@H](Cc3ccccc3)NC(=O)[C@]23[C@H](OC(C)=O)/C=C/[C@@](C)(O)C(=O)[C@@H](C)C/C=C/[C@H]3[C@@H]1O", "note": "[cytochalasin D, Cytochalasin D]", "values": [{"measurement": "large, stable, quantized force steps", "setting": "[1]; cell's cytoskeleton perturbed with cytochalasin D and allowed to recover in growth media", "result": "~1", "unit": "nN"}, {"measurement": "small force oscillations, peak-to-peak", "setting": "[1]; lamellipodium perturbed with cytochalasin D and recovering in growth media, frequency monotonically dependent on force exerted", "result": "roughly 400 pN"}]}
